Assay results taken from ChEMBL document CHEMBL4334464, “From Phenylthiazoles to Phenylpyrazoles: Broadening the Antibacterial Spectrum toward Carbapenem-Resistant Bacteria” (J Med Chem, 2019).
≈ marks a conversion by molar mass, not a printed value. Calls of active or inactive are those of the source. The calls are words filed in the database; no cut-off is given here.

Legend:
Staphylococcus aureus [1] = experiment: Antibacterial activity against methicillin-resistant Staphylococcus aureus NRS384-USA300 clinical isolates after 18 to 20 hrs in aerobic condition by CLSI protocol based broth microdilution assay; assay type: functional
Staphylococcus aureus [2] = experiment: Antibacterial activity against Methicillin-sensitive Staphylococcus aureus NRS107 clinical isolates after 18 to 20 hrs in aerobic condition by CLSI protocol based broth microdilution assay; assay type: functional
Staphylococcus aureus [3] = experiment: Antibacterial activity against linezolid-resistant/Methicillin-resistant Staphylococcus aureus NRS119 clinical isolates after 18 to 20 hrs in aerobic condition by CLSI protocol based broth microdilution assay; assay type: functional
Staphylococcus aureus [4] = experiment: Antibacterial activity against Methicillin-resistant Staphylococcus aureus NRS385-USA500 clinical isolates after 18 to 20 hrs in aerobic condition by CLSI protocol based broth microdilution assay; assay type: functional
Staphylococcus aureus [5] = experiment: Antibacterial activity against Methicillin-resistant Staphylococcus aureus USA700-NRS386 clinical isolates after 18 to 20 hrs in aerobic condition by CLSI protocol based broth microdilution assay; assay type: functional
Staphylococcus aureus [6] = experiment: Antibacterial activity against vancomycin-resistant Staphylococcus aureus isolate 10 after 18 to 20 hrs in aerobic condition by CLSI-based broth microdilution assay; assay type: functional
Staphylococcus aureus [7] = experiment: Antibacterial activity against vancomycin-resistant Staphylococcus aureus isolate 12 after 18 to 20 hrs in aerobic condition by CLSI-based broth microdilution assay; assay type: functional
Staphylococcus aureus [8] = experiment: Bactericidal activity against methicillin-resistant Staphylococcus aureus NRS123-USA400 clinical isolates at 5 times MIC incubated over 24 hrs followed by replating on tryptic soy agar plate and further incubated for 18 to 20 hrs by time kill assay; assay type: functional, organism-based
Acinetobacter baumannii [9] = experiment: Antibacterial activity against Acinetobacter baumannii ATCC BAA 1141 clinical isolates after 18 to 20 hrs in aerobic condition by CLSI-based broth microdilution assay; assay type: functional
Acinetobacter baumannii [10] = experiment: Antibacterial activity against Acinetobacter baumannii NR 17786 clinical isolates after 18 to 20 hrs in aerobic condition by CLSI-based broth microdilution assay; assay type: functional
Escherichia coli [11] = experiment: Antibacterial activity against Escherichia coli BW25113 clinical isolates after 18 to 20 hrs in aerobic condition by CLSI-based broth microdilution assay; assay type: functional
Escherichia coli [12] = experiment: Antibacterial activity against Escherichia coli ATCC 35150 clinical isolates after 18 to 20 hrs in aerobic condition by CLSI-based broth microdilution assay; assay type: functional
[13] = Antibacterial activity against Enterobacter cloacae subsp. cloacae ATCC BAA-1143 clinical isolates after 18 to 20 hrs in aerobic condition by CLSI-based broth microdilution assay; assay type: functional
Salmonella enterica = experiment: Antibacterial activity against Salmonella enterica NR-170 clinical isolates after 18 to 20 hrs in aerobic condition by CLSI-based broth microdilution assay; assay type: functional
Salmonella enteritidis = experiment: Antibacterial activity against Salmonella enteritidis ATCC 13076 clinical isolates after 18 to 20 hrs in aerobic condition by CLSI-based broth microdilution assay; assay type: functional, Salmonella enterica subsp. enterica serovar Enteritidis; conditions: Salmonella enterica
Pseudomonas aeruginosa [14] = experiment: Antibacterial activity against Pseudomonas aeruginosa ATCC 15442 clinical isolates after 18 to 20 hrs in aerobic condition by CLSI-based broth microdilution assay; assay type: functional
Escherichia coli [15] = experiment: Antibacterial activity against carbapenem-resistant Escherichia coli BAA-2452 clinical isolates after 18 to 20 hrs in aerobic condition by CLSI-based broth microdilution assay; assay type: functional
Escherichia coli [16] = experiment: Antibacterial activity against carbapenem-resistant Escherichia coli BAA-2469 clinical isolates after 18 to 20 hrs in aerobic condition by CLSI-based broth microdilution assay; assay type: functional
Klebsiella pneumoniae [17] = experiment: Antibacterial activity against carbapenem-resistant Klebsiella pneumoniae ATCC BAA-1705 clinical isolates after 18 to 20 hrs in aerobic condition by CLSI-based broth microdilution assay; assay type: functional
Klebsiella pneumoniae [18] = experiment: Antibacterial activity against carbapenem-resistant Klebsiella pneumoniae ATCC BAA-2146 clinical isolates after 18 to 20 hrs in aerobic condition by CLSI-based broth microdilution assay; assay type: functional
Acinetobacter baumannii [19] = experiment: Antibacterial activity against carbapenem-resistant Acinetobacter baumannii ATCC BAA 1605 clinical isolates after 18 to 20 hrs in aerobic condition by CLSI-based broth microdilution assay; assay type: functional
Pseudomonas aeruginosa [20] = experiment: Antibacterial activity against carbapenem-resistant Pseudomonas aeruginosa ATCC 1744 clinical isolates after 18 to 20 hrs in aerobic condition by CLSI-based broth microdilution assay; assay type: functional
Escherichia coli [21] = experiment: Inhibition of 6His tagged Escherichia coli UPPP expressed in Escherichia coli C41(DE3) cells preincubated for 15 mins followed by FPP substrate addition and measured after 20 mins by malachite green reagent based assay
Staphylococcus aureus [22] = experiment: Ratio of MBC to MIC for Methicillin-sensitive Staphylococcus aureus ATCC 6538 clinical isolates; assay type: functional
[23] = test system: Staphylococcus epidermidis; experiment: Ratio of MBC to MIC for Staphylococcus epidermidis NRS101 clinical isolates; assay type: functional
Enterococcus faecalis = experiment: Ratio of MBC to MIC for vancomycin-resistant Enterococcus faecalis ATCC 51299 clinical isolates; assay type: functional
Enterococcus faecium = experiment: Ratio of MBC to MIC for vancomycin-resistant Enterococcus faecium ATCC 700221 clinical isolates; assay type: functional
Streptococcus pneumoniae = experiment: Ratio of MBC to MIC for cephalosporin-resistant Streptococcus pneumoniae ATCC 51916 clinical isolates; assay type: functional
Acinetobacter baumannii [24] = experiment: Ratio of MBC to MIC for Acinetobacter baumannii ATCC BAA 1141 clinical isolates; assay type: functional
Acinetobacter baumannii [25] = experiment: Ratio of MBC to MIC for Acinetobacter baumannii ATCC BAA 1747 clinical isolates; assay type: functional
Acinetobacter baumannii [26] = experiment: Ratio of MBC to MIC for Acinetobacter baumannii NR 17785 clinical isolates; assay type: functional
Acinetobacter baumannii [27] = experiment: Ratio of MBC to MIC for Acinetobacter baumannii NR 17786 clinical isolates; assay type: functional
Escherichia coli [28] = experiment: Ratio of MBC to MIC for Escherichia coli ATCC 1411 clinical isolates; assay type: functional
[29] = test system: Enterobacter cloacae subsp. cloacae; experiment: Ratio of MBC to MIC for Enterobacter cloacae subsp. cloacae ATCC BAA-1143 clinical isolates; assay type: functional
Klebsiella pneumoniae [30] = experiment: Ratio of MBC to MIC for Klebsiella pneumoniae BAA-1706 after 18 to 20 hrs in aerobic condition by CLSI-based broth microdilution assay; assay type: functional
Klebsiella pneumoniae [31] = experiment: Ratio of MBC to MIC for Klebsiella pneumoniae BAA-1144 clinical isolates; assay type: functional
Shigella flexneri = experiment: Ratio of MBC to MIC for Shigella flexneri ATCC 9199 clinical isolates; assay type: functional
Pseudomonas aeruginosa [32] = experiment: Ratio of MBC to MIC for Pseudomonas aeruginosa ATCC 9027 clinical isolates; assay type: functional
Pseudomonas aeruginosa [33] = experiment: Ratio of MBC to MIC for Pseudomonas aeruginosa ATCC 25619 clinical isolates; assay type: functional
Pseudomonas aeruginosa [34] = experiment: Ratio of MBC to MIC for Pseudomonas aeruginosa ATCC 15442 clinical isolates; assay type: functional
Clostridioides difficile = experiment: Ratio of MBC to MIC for Clostridium difficile ATCC BAA 1870; assay type: functional
Acinetobacter baumannii [35] = experiment: microbe, parasite or virus in culture; conditions: ATCC BAA 1747
Description: Antibacterial activity against Acinetobacter baumannii ATCC BAA 1747 after 18 to 20 hrs in aerobic condition by CLSI-based broth microdilution assay

Pseudomonas aeruginosa [36] = experiment: microbe, parasite or virus in culture; conditions: ATCC 9027
Description: Antibacterial activity against Pseudomonas aeruginosa ATCC 9027 clinical isolates after 18 to 20 hrs in aerobic condition by CLSI-based broth microdilution assay

Pseudomonas aeruginosa [37] = experiment: microbe, parasite or virus in culture; conditions: ATCC 25619
Description: Antibacterial activity against Pseudomonas aeruginosa ATCC 25619 clinical isolates after 18 to 20 hrs in aerobic condition by CLSI-based broth microdilution assay

With `C/C(=N\NC(=N)N)c1cnn(-c2ccc(C#CC3CCCC3)cc2)c1C` the MIC (Staphylococcus aureus [1]) was 1 µg/mL (≈ 2.87 µM), the MIC (Staphylococcus aureus [2]) was 1 µg/mL (≈ 2.87 µM) and the MIC (Staphylococcus aureus [3]) was 1 µg/mL (≈ 2.87 µM). The MIC (Staphylococcus aureus [4]) was 0.5 µg/mL (≈ 1.43 µM), the MIC (Staphylococcus aureus [5]) was 1 µg/mL (≈ 2.87 µM) and the MIC (Staphylococcus aureus [6]) was 0.5 µg/mL (≈ 1.43 µM). The MIC (Staphylococcus aureus [7]) was 1 µg/mL (≈ 2.87 µM), the Activity (Staphylococcus aureus [8]) was “Active” and the MIC (Acinetobacter baumannii [9]) was 4 µg/mL (≈ 11.5 µM). It also gave an MIC (Acinetobacter baumannii [10]) of 8 µg/mL (≈ 23 µM), an MIC (Escherichia coli [11]) of 8 µg/mL (≈ 23 µM) and an MIC (Escherichia coli [12]) of 4 µg/mL (≈ 11.5 µM). The MIC [13] was 8 µg/mL (≈ 23 µM), the MIC (Salmonella enterica) was 8 µg/mL (≈ 23 µM) and the MIC (Salmonella enteritidis) was 4 µg/mL (≈ 11.5 µM). The MIC (Pseudomonas aeruginosa [14]) was 32 µg/mL (≈ 91.8 µM), the MIC (Escherichia coli [15]) was 4 µg/mL (≈ 11.5 µM) and the MIC (Escherichia coli [16]) was 4 µg/mL (≈ 11.5 µM). For the same compound, the MIC (Klebsiella pneumoniae [17]) was 8 µg/mL (≈ 23 µM), the MIC (Klebsiella pneumoniae [18]) was 16 µg/mL (≈ 45.9 µM) and the MIC (Acinetobacter baumannii [19]) was 8 µg/mL (≈ 23 µM). For the same compound, the MIC (Pseudomonas aeruginosa [20]) was 16 µg/mL (≈ 45.9 µM), the inhibition (Escherichia coli [21]) was “inactive” and the Ratio (Staphylococcus aureus [22]) was “<=2”. For the same compound, the Ratio [23] was less than 3, the Ratio (Enterococcus faecalis) was less than 3 and the Ratio (Enterococcus faecium) was less than 3. The Ratio (Streptococcus pneumoniae) was less than 3, the Ratio (Acinetobacter baumannii [24]) was “>=1” and the Ratio (Acinetobacter baumannii [25]) was “>=1”. For the same compound, the Ratio (Acinetobacter baumannii [26]) was “>=1”, the Ratio (Acinetobacter baumannii [27]) was “>=1” and the Ratio (Escherichia coli [28]) was “>=1”. The Ratio [29] was greater than 1, the Ratio (Klebsiella pneumoniae [30]) was “>=1” and the Ratio (Klebsiella pneumoniae [31]) was “>=1”. For the same compound, the Ratio (Shigella flexneri) was “>=1”, the Ratio (Pseudomonas aeruginosa [32]) was “>=1” and the Ratio (Pseudomonas aeruginosa [33]) was “>=1”. For the same compound, the Ratio (Pseudomonas aeruginosa [34]) was “>=1”, the Ratio (Clostridioides difficile) was less than 3 and the MIC (Acinetobacter baumannii [35]) was 4 µg/mL (≈ 11.5 µM). For the same compound, the MIC (Pseudomonas aeruginosa [36]) was 16 µg/mL (≈ 45.9 µM) and the MIC (Pseudomonas aeruginosa [37]) was 16 µg/mL (≈ 45.9 µM).
Compound `C/C(=N\NC(=N)N)c1cnn(-c2ccc(C#CC3(O)CCCCC3)cc2)c1C` has an MIC (Staphylococcus aureus [1]) of 2 µg/mL (≈ 5.28 µM), an MIC (Staphylococcus aureus [2]) of 4 µg/mL (≈ 10.6 µM) and an MIC (Staphylococcus aureus [3]) of 2 µg/mL (≈ 5.28 µM). The MIC (Staphylococcus aureus [4]) was 2 µg/mL (≈ 5.28 µM), the MIC (Staphylococcus aureus [5]) was 2 µg/mL (≈ 5.28 µM) and the MIC (Staphylococcus aureus [6]) was 2 µg/mL (≈ 5.28 µM). The MIC (Staphylococcus aureus [7]) was 2 µg/mL (≈ 5.28 µM), the Activity (Staphylococcus aureus [8]) was “Active” and the MIC (Acinetobacter baumannii [9]) was 8 µg/mL (≈ 21.1 µM). For the same compound, the MIC (Acinetobacter baumannii [10]) was 16 µg/mL (≈ 42.3 µM), the MIC (Escherichia coli [11]) was 8 µg/mL (≈ 21.1 µM) and the MIC (Escherichia coli [12]) was 16 µg/mL (≈ 42.3 µM). For the same compound, the MIC [13] was 16 µg/mL (≈ 42.3 µM), the MIC (Salmonella enterica) was 16 µg/mL (≈ 42.3 µM) and the MIC (Salmonella enteritidis) was 32 µg/mL (≈ 84.5 µM). The MIC (Pseudomonas aeruginosa [14]) was 64 µg/mL (≈ 169 µM), the MIC (Escherichia coli [15]) was 64 µg/mL (≈ 169 µM) and the MIC (Escherichia coli [16]) was 64 µg/mL (≈ 169 µM). It also gave an MIC (Klebsiella pneumoniae [17]) of 64 µg/mL (≈ 169 µM), an MIC (Klebsiella pneumoniae [18]) greater than 64 µg/mL and an MIC (Acinetobacter baumannii [19]) of 32 µg/mL (≈ 84.5 µM). The MIC (Pseudomonas aeruginosa [20]) was 64 µg/mL (≈ 169 µM), the Ratio (Staphylococcus aureus [22]) was “<=2” and the Ratio [23] was less than 3. For the same compound, the Ratio (Enterococcus faecalis) was less than 3, the Ratio (Enterococcus faecium) was less than 3 and the Ratio (Streptococcus pneumoniae) was less than 3. For the same compound, the Ratio (Acinetobacter baumannii [24]) was “>=1”, the Ratio (Acinetobacter baumannii [25]) was “>=1” and the Ratio (Acinetobacter baumannii [26]) was “>=1”. The Ratio (Acinetobacter baumannii [27]) was “>=1”, the Ratio (Escherichia coli [28]) was “>=1” and the Ratio [29] was greater than 1. The Ratio (Klebsiella pneumoniae [30]) was “>=1”, the Ratio (Klebsiella pneumoniae [31]) was “>=1” and the Ratio (Shigella flexneri) was “>=1”. For the same compound, the Ratio (Pseudomonas aeruginosa [32]) was “>=1”, the Ratio (Pseudomonas aeruginosa [33]) was “>=1” and the Ratio (Pseudomonas aeruginosa [34]) was “>=1”. It also gave a Ratio (Clostridioides difficile) of less than 3, an MIC (Acinetobacter baumannii [35]) of 16 µg/mL (≈ 42.3 µM) and an MIC (Pseudomonas aeruginosa [36]) of 32 µg/mL (≈ 84.5 µM). For the same compound, the MIC (Pseudomonas aeruginosa [37]) was 32 µg/mL (≈ 84.5 µM).
